Source: publication PMC5994915 (Bioorganic & medicinal chemistry, 2017)

Legend:
[1] = test system: class I HDACs in HEL cells; conditions: Boc-Lys (acetyl)-AMC substrate, n ≥ 2
[2] = test system: class IIa HDACs in HEL cells; conditions: Boc-Lys (triflouroacetyl)-AMC substrate, n ≥ 2

| Compound | HDAC class I cellular IC50 [1] | HDAC class IIa cellular IC50 [2] |
| --- | --- | --- |
| Nc1ccc(-c2cccs2)cc1NC(=O)c1ccc(CNC(=O)CN2C(=O)C3(OCCCO3)c3cc(Cl)ccc32)cc1 [23a, N-(2-Amino-5-(thiophen-2-yl)phenyl)-4-((2-(5-chloro-2-oxospiro[indoline-3,2′-[1,3]dioxan]-1-yl)acetamido)methyl)benza-mide] | not active | not active |
| Nc1ccccc1NC(=O)c1ccc(NC(=O)CN2C(=O)C3(OCCCO3)c3cc(Br)ccc32)cc1 [9a, N-(2-aminophenyl)-4-(2-(5-bromo-2-oxospiro[indoline-3,2′-[1,3]dioxan]-1-yl)acetamido)ben-zamide] | not active | not active |
